Data on one molecule can be found in patent US20260285903A1, “SYNTHESIZED BIOLOGICALLY ACTIVE COMPOUNDS AND METHODS OF MAKING AND USING” (Georgia State University Research Foundation, Inc., priority 2023, published 2026).

The target of one series is SPHK2 (Homo sapiens, UniProt Q9NRA0). The series is described as follows: Radiometric 33P kinase assay, 17 Lipid Kinase Panel. It counts as biochemical. The following applies: 20 μM M13, 10 μM ATP; read-out: inhibition of enzyme activity relative to control. The text has this: It was hypothesized that M13 may target kinases to reduce the inflammatory response. Determination and improvement of the selectivity of a compound by screening a large part of the kinome are of pivotal importance in the discovery of M13 signaling pathways for its anti-inflammatory activities. Radiometric assays were used based on the transfer of ^33P-labeled phosphate from ATP to the kinase substrates found in the 376 Wild Type Kinase Panel and 17 Lipid Kinase Panel (Reaction Biology) and a broad kinase selectivity screen for the inhibitory activity of M13 was performed. Briefly, radiometric assays are based on the transfer of 10 μM ^33P-labelled phosphate from ATP to the kinase substrate. […] FIGS. 2A and 2B show the targeted inhibitor effects of M13 on lipid kinases (FIG. 2A) and protein kinases (FIG. 2B).

Another series relates to HIEC-6 cells. The series is described as follows: MTT viability assay, 2D culture. The following applies: Homo sapiens. It is filed as cell-based. The protocol: (§1) PBMCs were provided by STEMCELL Technologies (STEMCELL Canada Inc.) and maintained in ImmunoCult™-XF T-cell Expansion Medium (Cat #10981). HIEC-6 cells were maintained in OptiMEM 1 Reduced Serum Medium supplemented with 20 mM HEPES, 10 mM GlutaMAX, 10 ng/mL Epidermal Growth Factor, 4% (v/v) fetal bovine serum (FBS), and 1% penicillin-streptomycin (PS). HCT-116 cells were maintained in ATCC-formulated McCoy's 5a medium, supplemented with 10% (v/v) FBS and 1% PS. Caco-2/BBe cells were grown in DMEM supplemented with 10% (v/v) FBS and 1% PS (v/v). Human colon cancer stem cells (HC-CSC) were maintained in complete growth media with serum and antibiotics (Cat #M36112-39S) from Celprogen Inc. (Torrance, CA, USA).
The […] (MTT) assay was used to study the effects of M13 on the viability of four 2D-cultured human intestinal cell lines (HIEC-6, HCT-116, Caco-2/BBe, and HC-CSC).

Series [1] in a line: pKa by UV metric at pH 2 to pH 12. It is filed as physicochemical. The source says:
The pKa of a drug influences lipophilicity, solubility, protein binding, and permeability, which in turn directly affects pharmacokinetic (PK) characteristics such as absorption, distribution, metabolism, and excretion.
(§2) The biopharmaceutical properties of the synthesized M13 (5-glutathione-6-shogaol) were characterized.

Series [2] is described as follows: Thermodynamic (equilibrium) solubility. It is filed as physicochemical. To be noted: read-out: thermodynamic (or equilibrium) solubility.
Description: (§3) The main reason for failure in drug development is poor biopharmaceutical properties, which include low aqueous solubility, chemical instability.
as §2

The next series has as its system human T lymphocytes. The series is described as follows: Immunogenic effects on T lymphocytes in cultured PBMCs (flow cytometry). It counts as cell-based. To be noted: 20 μM, 4-day, vs SC and standard control. The protocol: as §1
To evaluate the immunogenic effects of M13 on human T lymphocytes, PBMCs were cultured in blank medium (standard control), medium containing CD3/CD28 activator (positive control), medium containing solvent (solvent control, SC), and medium containing M13 solution (20 μM). All the groups were cultured in the presence or absence of interleukin-2 (IL-2). After a 4-day incubation, PBMCs were labeled with immunofluorescent dyes and analyzed using flow cytometry.

In another series the test system is 25 selected targets. The series is described as follows: In vitro evaluation of safety and toxicity (InVEST) screening. The protocol: Safety screening of M13 was performed using an in vitro evaluation of safety and toxicity (InVEST). The effects of M13 was tested against 25 selected targets, including factors known to be involved in toxicity in humans.
The test system of series [3] is human normal colon fibroblast cells (CCD-18Co). The following applies: cited from earlier work.
A short description of series [4]: Partition between octanol and aqueous buffer (Log D7.4). It counts as physicochemical. The following applies: pH 7.4.
Description: as §3, §2

The next series can be described thus: Kinetic solubility. It counts as physicochemical.
Description: as §3, §2

A further series deals with NF-κB signaling pathway. As to the kind of experiment: NF-κB-dependent luciferase activity in NF-κB/293/GFP-Luc cells treated with TNF-α. It is filed as cell-based. The protocol: First, the anti-inflammatory activity of MLY compounds on the NF-κB signaling pathway was examined using the NF-xB/293/GFP-LucTnl cell line (System Biosciences). This cell line is specifically designed for use in quantitatively monitoring (by luciferase intensity) transcriptional activation related to the NF-κB signal transduction pathway in vitro. Treatment of NF-κB/293/GFP-Luc™ cells with 10 ng/ml TNF-α for 18 hours induced strong activation of the NF-κB signal transduction pathway (FIGS. 8A and 8B). […] MLY2 and MLY8 induced a strongest 90% reduction of NF-κB activation the anti-inflammatory effect of MLY 2 and 8 was dose-related (FIG. 9). The dose to reduce the NF-κB activation by 50% was […] for M13, 5 μM for MLY2 and 11 μM for MLY8 (FIG. 9).

For series [5], the system named is lung cancer cells (H-1299). To be noted: cited from earlier work.

Converted amounts (≈) assume the structure as drawn. Like-named read-outs stand apart in the source and are kept apart here.

Sequence of SPHK2 (Q9NRA0 whole entry): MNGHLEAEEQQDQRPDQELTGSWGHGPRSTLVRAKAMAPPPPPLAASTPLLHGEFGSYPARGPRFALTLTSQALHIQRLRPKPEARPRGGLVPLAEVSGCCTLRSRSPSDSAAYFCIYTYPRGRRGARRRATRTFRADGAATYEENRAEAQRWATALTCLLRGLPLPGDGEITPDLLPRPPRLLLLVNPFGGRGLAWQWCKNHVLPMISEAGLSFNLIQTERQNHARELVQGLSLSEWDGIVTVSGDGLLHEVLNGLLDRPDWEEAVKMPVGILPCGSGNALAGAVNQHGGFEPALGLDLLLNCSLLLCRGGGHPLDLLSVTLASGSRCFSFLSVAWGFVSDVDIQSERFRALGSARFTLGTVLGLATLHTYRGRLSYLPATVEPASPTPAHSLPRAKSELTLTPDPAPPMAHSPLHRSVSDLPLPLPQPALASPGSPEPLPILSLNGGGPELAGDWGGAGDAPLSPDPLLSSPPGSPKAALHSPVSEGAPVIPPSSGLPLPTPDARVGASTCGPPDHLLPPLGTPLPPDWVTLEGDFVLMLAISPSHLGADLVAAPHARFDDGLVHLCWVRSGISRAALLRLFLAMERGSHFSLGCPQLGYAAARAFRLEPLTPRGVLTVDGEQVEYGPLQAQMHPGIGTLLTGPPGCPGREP

With `CCCCCC(CC(=O)CCc1ccc(O)c(OC)c1)SCC(NC(=O)CCC(N)C(=O)O)C(=O)NCC(=O)O` (stereo not shown) [M13, 5-glutathione-6-shogaol], at SPHK2, the inhibition at 20 µM was 30 to 45%. The IC50 in the series with HIEC-6 cells (HIEC-6) was above 100 µM; with HIEC-6 cells (HIEC-6, 24 h), above 100 µM; in the series on NF-κB signaling pathway (read-out: dose to reduce the NF-κB activation by 50%), around 29 µM. Further, the results for the pKa in series [1] (read-out: pKa1), in [1] (read-out: pKa2) and in series [1] (read-out: pKa3) were 3.24, 9.12 and 10.4, respectively. Also, the solubility (thermodynamic) in [2] (Example 1) was 1390 µM (≈ 812 µg/mL); in series [2] (as printed in Example 6), 1390 µM (≈ 811 µg/mL). In addition, the “proliferation of activated CD4+ and CD8+ lymphocytes” value with human T lymphocytes (activated-stage (with IL-2)) was “reduced proliferation”. Further, the “percentages of CD4+ and CD8+ T-cell populations and T-cell proliferation status” value in the series with human T lymphocytes (resting-stage (without IL-2)) is given as “similar”. Further, the “effect on the activities of 25 assorted targets from five target classes” value in the series with 25 selected targets is recorded as “did not have any significant effect”. In the series on 25 selected targets, the “inhibition of GPCR targets, ion channel (5-HT3), phosphodiesterase, protease thrombin alpha” value is “did not inhibit”. Moreover, the “modulation of the activity of the nuclear receptor AHR” value in the series with 25 selected targets is recorded as “did not significantly modulate”. Moreover, the toxicity result in series [3] is given as “low toxicity”. In series [4], the logD was -1.75. In addition, the solubility (kinetic) in the series “Kinetic solubility” (Example 1) and in “Kinetic solubility” (as printed in Example 6) was above 200 µM in each case. In addition, in the series with NF-κB signaling pathway (M13 20 μM, TNF-α 10 ng/ml, 18 hours, read-out: RLU (% with TNFα)), the activity at 20 µM worked out at 87.2 ± 8.29%. The activity at 50 µM in the series on NF-κB signaling pathway (M13 50 μM, TNF-α 10 ng/ml, 18 hours, read-out: RLU (% with TNFα)) came out at 9.75 ± 2.78%. Moreover, the activity at 100 µM in the series on NF-κB signaling pathway (M13 100 μM, TNF-α 10 ng/ml, 18 hours, read-out: RLU (% with TNFα)) amounted to 0.81 ± 0.22%. Also, the bioactivity result in series [5] was “exhibited bioactivity”.
